In US10106532B2, “Inhibitors of beta-hydroxylase for treatment of cancer” (MIDWESTERN UNIVERSITY, priority 2012, dated 2018):
Entries after “also recorded” stand apart in the source; their conditions may differ.

Columns and labels:
FOCUS cells = test: invasion assay using matrigel coated membrane; assay type: cell-based, human; conditions: 6 hours, compared to DMSO control
Experimental: The β-hydroxylase activity is required for ASPH to mediate its effects on cell motility. Directional motility was measured using Boyden chamber-type culture inserts equipped with porous membranes. FOCUS cells were pretreated with 5 μM of MO-1-1100 and MO-1-500 β-hydroxylase inhibitor for 24 hours, and then placed into the upper chamber. Migration was allowed to proceed for 30 min. ATPLite was used to quantify viable cell density. The cells in the upper well and upper surface of membrane reflects the number of non-migrating cells, luminescence measured at the bottom surface of the membrane reflects the number of migrating and non-adherent cells and luminescence measured in the bottom well was reflect migrating and non-adherent cells. […] Cell invasiveness was assessed by invasion assay using matrigel coated membrane, in which cells were allowed to proceed for 6 hours; those found adhered on the bottom surface of membrane were regarded as invading cells.

FOCUS = test: cell viability; assay type: cell-based, human; conditions: 5 μM
Experimental: A MTT assay was performed to evaluate the effect of MO-1-1100 on cell proliferation and viability. MTT is reduced to purple formazan in living cells. FOCUS cells were used as a high ASPH expressing human HCC cell line. […] The MTT assay measures cellular metabolic activity via NAD(P)H-dependent cellular oxidoreductase enzymes. […] In order to evaluate the effect of long-term exposure of MO-1-1100, the colony formation assay (an assay of malignant potential and phenotype) in which cells were treated with inhibitor for 3 weeks was performed.

In the case of `NC1=C(OS(=O)(=O)Cc2ccccc2)C(=O)C(c2ccc(Cl)cc2)O1` (racemic) [MO-1-1100], the invasiveness (FOCUS cells) is reported as “significantly reduced; also recorded: significantly inhibited” and the “cell viability, inhibition rate” value (FOCUS) is reported as 37.9%.
